# Patent publication US11345702B1 (Myoforte Therapeutics, Inc., priority 2020, dated 2022)
# Columns and labels:
# [1] = Liver microsome stability assay (MLM); type: in vitro ADME; details: mouse liver microsomes
# Procedure: A microsomal mixture (microsomes and Kphos buffer) was prepared at a concentration of 1.428 mg/mL in 2 mL tubes. To this microsomal mixture 1.6 μL (1 mM) of test compound and positive control were spiked; from this mixture, 70 μL was transferred to 96 well plate and pre-incubated at 37° C. for 5 min. After pre-incubation, the zero minute time point reaction was stopped using 100 μL of ice-cold acetonitrile containing internal standard and […] (3.33 mM in Kphos buffer) was added. The 45 minute time point reaction was initiated by addition of 30 μL of NADPH (3.33 mM in Kphos buffer) and incubated at 37° C. for 15 and 45 min. Reactions without NADPH and buffer controls (minus NADPH) at 0, 15, and 45 minutes were also incubated to rule out non-NADPH metabolism or chemical instability in the incubation buffer. Incubation reactions were stopped with 100 μL of ice-cold acetonitrile containing internal standard. The plates were centrifuged at 4000 RPM for 15 min and 100 μL aliquots were submitted for analysis by LC-MS/MS. (Verapamil in human liver microsomes (HLM) and rat liver microsomes (RLM) was used as positive controls. Imipramine in mouse liver microsomes (MLM) was used as a positive control.) Samples were monitored for parent compound disappearance in MRM mode (multiple reaction monitoring) using LC-MS/MS. The peak area ratios of analyte versus internal standard were used to calculate the % remaining at the end of 45 minutes in the presence of NADPH.
# 15-PGDH/HPGD = 15-PGDH/HPGD (Homo sapiens (Human), UniProt P15428); assay: hPGDH inhibitor screening biochemical assay; details: read-out: hPGDH: Average IC50
# How it was run: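 Recombinant human 15-PGDH (10 nM) pre-incubated with compounds 10 min at 37 °C, then 15 μM PGE2 and 0.25 mM NAD+ added for 10 min at room temperature in 50 mM Tris-HCl pH 7.5, 0.01% Tween 20. NADH fluorescence read at ex/em 340/485 nm. IC50 from 10-point curves, four-parameter fit versus 1% DMSO.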
# Chain of 15-PGDH/HPGD (P15428 whole entry): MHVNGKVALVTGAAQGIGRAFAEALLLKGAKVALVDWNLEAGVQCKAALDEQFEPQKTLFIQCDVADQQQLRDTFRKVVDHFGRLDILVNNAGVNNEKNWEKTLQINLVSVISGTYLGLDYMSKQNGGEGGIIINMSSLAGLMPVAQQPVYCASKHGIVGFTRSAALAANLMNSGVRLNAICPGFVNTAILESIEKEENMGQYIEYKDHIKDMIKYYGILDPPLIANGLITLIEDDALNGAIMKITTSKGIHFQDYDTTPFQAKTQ
Structure (SMILES),MLM + NADPH (% remaining at 45 min) [1] [%],IC50 (15-PGDH/HPGD) [µM]
O=C(NC1CCS(=O)(=O)CC1)c1cc(Cl)cc(-n2ccc3cc(C(=O)N4CCC(F)(F)CC4)cnc32)c1,81,< 0.1
O=C(c1cnc2c(ccn2-c2cc(Cl)cc(C(=O)N3CCS(=O)(=O)CC3)c2)c1)N1CCC(F)(F)CC1,37,< 0.1
NC(=O)c1ccc(-n2ccc3cc(C(=O)N4CCCCC4)cnc32)cn1 [MF-DH-365],41,< 0.1
"NC(=O)c1ccc(-n2cc(Cl)c3cc(C(=O)N4CCC(F)CC4)cnc32)cc1 [MF-DH-382, 4-(3-chloro-5-(4-fluoropiperidine-1-carbonyl)-1H-pyrrolo[2,3-b]pyridin-1-yl)benzamide]",26,< 0.1
"NC(=O)c1ccc(-n2cc(Cl)c3cc(C(=O)N4CCCCC4)cnc32)cc1 [MF-DH-383, 4-(3-chloro-5-(piperidine-1-carbonyl)-1H-pyrrolo[2,3-b]pyridin-1-yl)benzamide]",12,< 0.1
"Cc1c(C(=O)N2CCC(F)CC2)cnc2c1ccn2-c1ccc(C#N)cc1 [MF-DH-387, 4-(5-(4-fluoropiperidine-1-carbonyl)-4-methyl-1H-pyrrolo[2,3-b]pyridin-1-yl)benzonitrile]",72,< 0.1
O=C(c1cnc2c(ccn2-c2ccc3[nH]ncc3c2)c1)N1CCC(F)(F)CC1 [MF-DH-396],4,< 0.1
N/C(=N\O)c1ccc(-n2ccc3cc(C(=O)N4CCCCC4)cnc32)cc1 [MF-DH-399],6,< 0.1
N/C(=N\O)c1cccc(-n2ccc3cc(C(=O)N4CCCCC4)cnc32)c1 [MF-DH-400],0,< 0.1
"CC(C)(C)C(=O)NCCNC(=O)c1ccc(-n2ccc3cc(C(=O)N4CCC(F)(F)CC4)cnc32)cc1 [MF-DH-403, 4-(5-(4,4-difluoropiperidine-1-carbonyl)-1H-pyrrolo[2,3-b]pyridin-1-yl)-N-(2-pivalamidoethyl)benzamide]",45,< 0.1
"CC(C)(C)CNC(=O)c1cncc(-n2ccc3cc(C(=O)N4CCC(F)(F)CC4)cnc32)c1 [MF-DH-405, 5-(5-(4,4-difluoropiperidine-1-carbonyl)-1H-pyrrolo[2,3-b]pyridin-1-yl)-N-neopentylnicotinamide]",86,< 0.1
"CC(C)(C)NC(=O)c1ccc(-n2ccc3cc(C(=O)N4CCC(F)(F)CC4)cnc32)cn1 [MF-DH-406, N-(tert-butyl)-5-(5-(4,4-difluoropiperidine-1-carbonyl)-1H-pyrrolo[2,3-b]pyridin-1-yl)picolinamide]",66,< 0.1
"CCC(CC)NC(=O)c1cncc(-n2ccc3cc(C(=O)N4CCC(F)(F)CC4)cnc32)c1 [MF-DH-407, 5-(5-(4,4-difluoropiperidine-1-carbonyl)-1H-pyrrolo[2,3-b]pyridin-1-yl)-N-(pentan-3-yl)nicotinamide]",51,< 0.1
"CS(=O)(=O)NCCNC(=O)c1ccc(-n2ccc3cc(C(=O)N4CCC(F)(F)CC4)cnc32)cc1 [MF-DH-409, 4-(5-(4,4-difluoropiperidine-1-carbonyl)-1H-pyrrolo[2,3-b]pyridin-1-yl)-N-(2-(methylsulfonamido)ethyl)benzamide]",78,< 0.1
"NCCNC(=O)c1ccc(-n2ccc3cc(C(=O)N4CCC(F)(F)CC4)cnc32)cc1 [MF-DH-411, N-(2-aminoethyl)-4-(5-(4,4-difluoropiperidine-1-carbonyl)-1H-pyrrolo[2,3-b]pyridin-1-yl)benzamide]",87,< 0.1
O=C(NC(CO)CO)c1ccc(-n2ccc3cc(C(=O)N4CCC(F)(F)CC4)cnc32)cc1 [MF-DH-412],97,< 0.1
O=C(NCCO)c1ccc(-n2ccc3cc(C(=O)N4CCC(F)(F)CC4)cnc32)cc1 [MF-DH-413],94,< 0.1

Structure (SMILES),MLM + NADPH (% remaining at 45 min) [1] [%],IC50 (15-PGDH/HPGD) [µM]
"CS(=O)(=O)NC(=O)c1ccc(-n2ccc3cc(C(=O)N4CCC(F)(F)CC4)cnc32)cc1 [MF-DH-428, 4-(5-(4,4-difluoropiperidine-1-carbonyl)-1H-pyrrolo[2,3-b]pyridin-1-yl)-N-(methylsulfonyl)benzamide]",97,< 0.1
O=C(NC1(C(=O)O)CC1)c1ccc(-n2ccc3cc(C(=O)N4CCC(F)(F)CC4)cnc32)cc1 [MF-DH-429],97,< 0.1
"O=C(O)c1ccc(-n2ccc3cc(C(=O)N4CCC(F)(F)CC4)cnc32)cn1 [MF-DH-434, 5-(5-(4,4-difluoropiperidine-1-carbonyl)-1H-pyrrolo[2,3-b]pyridin-1-yl)picolinic acid]",94,< 0.1
"CCC(CC)NC(=O)c1ccc(-n2ccc3cc(C(=O)N4CCC(F)(F)CC4)cnc32)cn1 [MF-DH-437, 5-(5-(4,4-difluoropiperidine-1-carbonyl)-1H-pyrrolo[2,3-b]pyridin-1-yl)-N-(pentan-3-yl) picolinamide]",25,< 0.1
"CC(C)(C)CNC(=O)c1ccc(-n2ccc3cc(C(=O)N4CCC(F)(F)CC4)cnc32)cn1 [MF-DH-438, 5-(5-(4,4-difluoropiperidine-1-carbonyl)-1H-pyrrolo[2,3-b]pyridin-1-yl)-N-neopentylpicolinamide]",63,< 0.1
"CC(C)(C)NC(=O)c1cncc(-n2ccc3cc(C(=O)N4CCC(F)(F)CC4)cnc32)c1 [MF-DH-448, N-(tert-butyl)-5-(5-(4,4-difluoropiperidine-1-carbonyl)-1H-pyrrolo[2,3-b]pyridin-1-yl)nicotinamide]",79,< 0.1
"O=C(c1cnc2c(ccn2-c2ccc(-c3nnn[nH]3)nc2)c1)N1CCC(F)(F)CC1 [MF-DH-452, (1-(6-(1H-tetrazol-5-yl)pyridin-3-yl)-1H-pyrrolo[2,3-b]pyridin-5-yl)(4,4-difluoropiperidin-1-yl)methanone]",90,< 0.1
CC1(C)NC(=O)N(c2ccc(-n3ccc4cc(C(=O)N5CCC(F)(F)CC5)cnc43)cn2)C1=O [MF-DH-457],87,< 0.1
"O=C(Nc1ccno1)c1cncc(-n2ccc3cc(C(=O)N4CCC(F)(F)CC4)cnc32)c1 [MF-DH-459, 5-(5-(4,4-difluoropiperidine-1-carbonyl)-1H-pyrrolo[2,3-b]pyridin-1-yl)-N-(isoxazol-5-yl)nicotinamide]",31,< 0.1
NC(=O)c1ccc(-n2cnc3cc(C(=O)N4CCC(F)(F)CC4)cnc32)cc1 [MF-DH-464],100,< 0.1
"NCCNC(=O)c1cccc(-n2ccc3cc(C(=O)N4CCC(F)(F)CC4)cnc32)c1 [MF-DH-467, N-(2-aminoethyl)-3-(5-(4,4-difluoropiperidine-1-carbonyl)-1H-pyrrolo[2,3-b]pyridin-1-yl)benzamide]",90,0.1 to 1
"Cc1nc(-c2cncc(-n3ccc4cc(C(=O)N5CCC(F)(F)CC5)cnc43)c2)no1 [MF-DH-470, (4,4-difluoropiperidin-1-yl)(1-(5-(5-methyl-1,2,4-oxadiazol-3-yl)pyridin-3-yl)-1H-pyrrolo[2,3-b]pyridin-5-yl)methanone]",74,< 0.1
"Cc1nc(-c2ccc(-n3ccc4cc(C(=O)N5CCC(F)(F)CC5)cnc43)cn2)no1 [MF-DH-471, (4,4-difluoropiperidin-1-yl)(1-(6-(5-methyl-1,2,4-oxadiazol-3-yl)pyridin-3-yl)-1H-pyrrolo[2,3-b]pyridin-5-yl)methanone]",99,< 0.1
O=C(c1cnc2c(ccn2-c2cncc(N3CCOC3=O)c2)c1)N1CCC(F)(F)CC1 [MF-DH-472],83,< 0.1
NC(=O)c1cncc(-n2cc(Cl)c3cc(C(=O)N4CCC(F)(F)CC4)cnc32)c1 [MF-DH-482],103,< 0.1
"CCOC(=O)Nc1cncc(-n2ccc3cc(C(=O)N4CCC(F)(F)CC4)cnc32)c1 [MF-DH-485, ethyl (5-(5-(4,4-difluoropiperidine-1-carbonyl)-1H-pyrrolo[2,3-b]pyridin-1-yl)pyridin-3-yl)carbamate]",80,< 0.1
"O=C(Nc1cc(C2CC2)[nH]n1)c1cccc(-n2ccc3cc(C(=O)N4CCC(F)(F)CC4)cnc32)c1 [MF-DH-498, N-(5-cyclopropyl-1H-pyrazol-3-yl)-3-(5-(4,4-difluoropiperidine-1-carbonyl)-1H-pyrrolo[2,3-b]pyridin-1-yl)benzamide]",0,< 0.1
